The text below walks through data of patent US5492906A, “Derivatives of thieno-triazolo-diazepine and therapeutic compositions containing them” (Societe de Conseils de Recherches et d'Applications …, priority 1989, dated 1996).

The test system of assay [1] is platelet agregation induced by PAF. As to the kind of experiment: Inhibition of platelet agregation induced by PAF. Format: cell-based, New Zealand rabbits. To be noted: Oryctolagus cuniculus, New Zealand rabbit platelets, agregometer at 57° C., Table I. The method, then:
1) Inhibition of platelet agregation induced by PAF
This experimentation was conducted according to the method of R. KINLOUGH. RATHBONE, J. P. CAZENAVE, M. PACKHAM and F. MUSTARD, Lab. Invest. 48, 98, 1980. In this test, New Zealand rabbits were used (male New Zealand rabbits of an average weight of 5 kg).
The determinations are made on a chrono-log Coultronics agregometer, at […] coupled with a graphic recorder; the results of these determinations (in molecular concentration) are reported on the table I on the central column.

A further assay has as its target benzodiazepine receptors. As to the kind of experiment: Inhibition of the binding to benzodiazepine receptors (rat brains). To be noted: rat brains incubated 1 h 30 at 4° C.; 3H-RO-15-4788 and 3H-RO-5-4864 as tracers; Table I; read-out: BDZ receptors (inhibition of the binding to benzodiazepine receptors). The source says:
2) Inhibition of the binding to benzodiazepine receptors
The interest of the previous experimentation depends on the results obtained in this experimentation: as a compound of the invention has a benzodiazepine like structure, it is important to check whether the specific benzodiazepine activity would not appear at the dose where platelet agregation was inhibited.
Therefore, this experimentation has been conducted according to the method of MOHLER H. and RICHARD J. G. Agonist and antagonist benzodiazepine receptor intereaction in vitro, Nature, vol. 294, 763°-765, 1981.
This experimentation was conducted on rat brains incubated 1 h 30 at 4° C. using ^3 H-RO-15-4788 and ^3 H-RO-5-4864 (NEN) as tracers and […] and RO-5-4864 as reference antagonists.
The results in molecular concentration are reported in the table I, on the right hand column.

Each structure is given as a SMILES string.

As for `Cc1nnc2n1-c1sc3c(c1C(c1ccccc1Cl)=NC2)CCN(C(=O)NC(C)C)C3` [Example 2, 6-(2-chlorophenyl)-9-isopropylcarbamoyl-7,8,9,10-tetra-hydro-1-methyl4H-pyrido[4',3':4,5]thieno[3,2-f]1,2,4-triazolo [4,3-a] 1,4-diazepine], the IC50 stood at 0.0235 µM in assay [1] and 66 µM on benzodiazepine receptors.

For the compound `Cc1nnc2n1-c1sc3c(c1C(c1ccccc1Cl)=NC2)CCN(C(=S)NC(C)(C)C)C3` [Example 4, 6-(2-chlorophenyl)-9-tertbutylthiocarbamoyl-7,8,9,10-tetrahydro-1-methyl4H-pyrido[4',3':4,5]theno [3,2-f]1,2,4-triazolo[4,3-a]1,4-diazepine], the values for the IC50 (in assay [1]; on benzodiazepine receptors) were 0.00882 µM and 0.135 µM, respectively.

As to `COc1ccc(NC(=O)N2CCc3c(sc4c3C(c3ccccc3Cl)=NCc3nnc(C)n3-4)C2)cc1` [Example 6, 6-(2-chlorophenyl)-9-(4-methoxy)phenylcarbamoyl-7,8,9,10-tetrahydro-1-methyl 4H-pyrido[4',3':4,5]thieno[3,2-f]1,2,4-triazolo[4,3-a]1,4-diazepine], the IC50 worked out at 0.127 µM in assay [1] and 77 µM at benzodiazepine receptors.

For `COc1cc(NC(=S)N2CCc3c(sc4c3C(c3ccccc3Cl)=NCc3nnc(C)n3-4)C2)cc(OC)c1OC` [Example 9, 6-(2-chlorophenyl)-9-(3,4,5-trimethoxy)phenylthiocarbamoyl-7,8,9,10-tetrahydro-1-methyl 4H-pyrido[4',3':4,5]thieno [3,2-f]1,2,4-triazolo[4,3-a]1,4-diazepine], the IC50 in assay [1] came to 0.0387 µM; at benzodiazepine receptors it was 4.5 µM.

Consider `Cc1nnc2n1-c1sc3c(c1C(c1ccccc1Cl)=NC2)CCN(C(=S)Nc1ccc(C(C)(C)C)cc1)C3` [Example 11, 6-(2-chlorophenyl)-9-(4-tertbutyl)phenylthiocarbamoyl-4H-pyrido[4',3':4,5]thieno [3,2-f]1,2,4-triazolo[4,3-a]1,4-diazepine], for which the IC50 in assay [1] was 0.00944 µM; at benzodiazepine receptors, 1.2 µM.

`Cc1nnc2n1-c1sc3c(c1C(c1ccccc1Cl)=NC2)CCN(C(=S)Nc1ccccc1C(F)(F)F)C3` [Example 12, 6-(2-chlorophenyl)-9-(2-trifluoromethyl)phenylthiocarbamoyl-7,8,9,10-tetrahydro-1-methyl 4H-pyrido[4',3':4,5]thieno[3,2-f]1,2,4-triazolo[4,3-a]1,4-diazepine]: the figures for the IC50 (in assay [1]; at benzodiazepine receptors) were 0.171 µM and 3.5 µM, respectively.

Consider `Cc1nnc2n1-c1sc3c(c1C(c1ccccc1Cl)=NC2)CCN(C(=S)Nc1cccc(C(F)(F)F)c1)C3` [Example 13, 6-(2-chlorophenyl)-9-(3-trifluoromethyl)phenylthiocarbamoyl-7,8,9,10-tetrahydro-1-methyl 4H-pyrido[4',3':4,5]thieno[3,2-f]1,2,4-triazolo[4,3-a]1,4-diazepine], for which the IC50 came to 0.171 µM in assay [1] and 6.25 µM at benzodiazepine receptors.

Regarding `Cc1nnc2n1-c1sc3c(c1C(c1ccccc1Cl)=NC2)CCN(C(=S)Nc1ccc(C(F)(F)F)cc1)C3` [Example 15, 6-(2-chlorophenyl)-9-(4-trifluoromethyl)phenylthiocarbamoyl-7,8,9,10-tetrahydro-1-methyl 4H-pyrido[4',3':4,5]thieno[3,2-f]1,2,4-triazolo[4,3-a]1,4-diazepine], the IC50 in assay [1] worked out at 0.22 µM; on benzodiazepine receptors it was 1.25 µM.

For `Cc1nnc2n1-c1sc3c(c1C(c1ccccc1Cl)=NC2)CCN(C(=S)Nc1ccc(F)cc1)C3` [Example 16, 6-(2-chlorophenyl)-9-(4-fluoro)phenylthiocarbamoyl-7,8,9,10-tetrahydro-1-methyl 4H-pyrido[4',3':4,5]thieno[3,2-f]1,2,4-triazolo[4,3-a]1,4-diazepine], the results for the IC50 (in assay [1]; on benzodiazepine receptors) were 0.064 µM and 0.7 µM, respectively.

Consider `Cc1nnc2n1-c1sc3c(c1C(c1ccccc1Cl)=NC2)CCN(C(=S)NC(C)Cc1ccccc1)C3` (stereo not drawn) [Example 19, 6-(2-chlorophenyl)-9-(α-methyl)phenethylthiocarbamoyl-7,8,9,10-tetrahydro-1-methyl 4H-pyrido[4',3':4,5]thieno[3,2-f]1,2,4-triazolo[4,3-a]1,4-diazepine], for which the IC50 came out at 0.0425 µM in assay [1] and 0.36 µM at benzodiazepine receptors.

`Cc1nnc2n1-c1sc3c(c1C(c1ccccc1Cl)=NC2)CCN(C(=S)NCC(C)c1ccccc1)C3` (stereo not drawn) [Example 20, 6-(2-chlorophenyl)-9-(β-methyl)phenethylthiocarbamoyl-7,8,9,10-tetrahydro-1-methyl 4H-pyrido[4',3':4,5]thieno[3,2-f]1,2,4-triazolo[4,3-a]1,4-diazepine]: the IC50 in assay [1] turned out to be 0.00617 µM; on benzodiazepine receptors it was 0.72 µM.

`Cc1nnc2n1-c1sc3c(c1C(c1ccccc1Cl)=NC2)CCN(C(=S)Nc1ccc(S(C)(=O)=O)cc1)C3` [Example 21, 6-(2-chlorophenyl)-9-(4-methylsulfonyl)phenylthiocarbamoyl-7,8,9,10-tetrahydro-1-methyl 4H-pyrido[4',3':4,5]thieno[3,2-f]1,2,4-triazolo[4,3-a]1,4-diazepine]: the IC50 in assay [1] was found to be 0.024 µM; at benzodiazepine receptors it was 1.1 µM.

As for `Cc1nnc2n1-c1sc3c(c1C(c1ccccc1Cl)=NC2)CCN(C(=O)NCc1ccccc1)C3` [Example 23, 6-(2-chlorophenyl)-9-benzylcarbamoyl-7,8,9,10-tetrahydro-1-methyl-4H-pyrido[4',3':4,5]thieno[3,2-f]1,2,4-triazolo[4,3-a]1,4-diazepine], the IC50 in assay [1] was determined as 0.0668 µM; on benzodiazepine receptors, 1.6 µM.

Turning to `Cc1nnc2n1-c1sc3c(c1C(c1ccccc1Cl)=NC2)CCN(C(=S)Nc1cnc2ccccc2c1)C3` [Example 25, 6-(2-chlorophenyl)-9-(3-quinolyl)thiocarbamoyl-7,8,9,10-tetrahydro-1-methyl-4H-pyrido[4',3':4,5]thieno[3,2-f]1,2,4-triazolo[4,3-a]1,4-diazepine], the IC50 is 0.182 µM in assay [1] and 0.35 µM at benzodiazepine receptors.

As to `Cc1nnc2n1-c1sc3c(c1C(c1ccccc1Cl)=NC2)CCN(C(=S)NC1CCCCC1)C3` [Example 26, 6-(2-chlorophenyl)-9-cyclohexylthiocarbamoyl-7,8,9,10-tetrahydro-1-methyl-4H-pyrido[4',3':4,5]thieno[3,2-f]1,2,4-triazolo[4,3-a]1,4-diazepine], the IC50 in assay [1] turned out to be 0.0533 µM; at benzodiazepine receptors it was 4.1 µM.

For `Cc1nnc2n1-c1sc3c(c1C(c1ccccc1Cl)=NC2)CCN(C(=O)NC1CCCCC1)C3` [Example 27, 6-(2-chlorophenyl)-9-cyclohexylcarbamoyl-7,8,9,10-tetrahydro-1-methyl-4H-pyrido[4', 3':4,5]thieno[3,2-f]1,2,4-triazolo[4,3-a]1,4-diazepine], the IC50 worked out at 0.0452 µM in assay [1] and 2 µM on benzodiazepine receptors.

Consider `C=CCNC(=S)N1CCc2c(sc3c2C(c2ccccc2Cl)=NCc2nnc(C)n2-3)C1` [Example 28, 6-(2-chlorophenyl)-9-allylthiocarbamoyl-7,8,9,10-tetrahydro-1-methyl-4H-pyrido[4',3':4,5]thieno[3,2-f]1,2,4-triazolo[4,3-a]1,4-diazepine], for which the IC50 turned out to be 0.00905 µM in assay [1] and 0.14 µM at benzodiazepine receptors.

Consider `Cc1nnc2n1-c1sc3c(c1C(c1ccccc1Cl)=NC2)CCN(C(=O)Nc1ccc(F)cc1F)C3` [Example 29, 6-(2-chlorophenyl)-9-(2,4-difluoro)phenylcarbamoyl-7,8,9,10-tetrahydro-1-methyl-4H-pyrido [4',3':4,5]thieno[3,2-f]1,2,4-triazolo[4,3-a]1,4-diazepine], for which the IC50 amounted to 0.0586 µM in assay [1] and 0.22 µM at benzodiazepine receptors.

Consider `Cc1nnc2n1-c1sc3c(c1C(c1ccccc1Cl)=NC2)CCN(C(=S)NS(=O)(=O)c1ccco1)C3` [Example 31, 6-(2-chlorophenyl)-9-(2-furylsulfonyl)thiocarbamoyl-7,8,9,10-tetrahydro-1-methyl-4H-pyrido[4',3':4,5]thieno[3,2-f]1,2,4-triazolo[4,3-a]1,4-diazepine], for which the values for the IC50 (in assay [1]; at benzodiazepine receptors) were 0.00815 µM and 0.615 µM, respectively.

As for `Cc1nnc2n1-c1sc3c(c1C(c1ccccc1Cl)=NC2)CCN(C(=O)NS(=O)(=O)c1cccs1)C3` [Example 32, 6-(2-chlorophenyl)-9-(2-thienylsulfonyl)carbamoyl-7,8,9,10-tetrahydro-1-methyl-4H-pyrido[4',5':4,5]thieno[3,2-f]1,2,4-triazolo[4,3-a]1,4-diazepine], the IC50 was 0.0666 µM in assay [1] and 4.33 µM at benzodiazepine receptors.

As to `Cc1nnc2n1-c1sc3c(c1C(c1ccccc1Cl)=NC2)CCN(C(=O)NS(=O)(=O)c1cccnc1)C3` [Example 34, 6-(2-chlorophenyl)-9-(3-pyridylsulfonyl)carbamoyl-7,8,9,10-tetrahydro-1-methyl-4H-pyrido[4',3':4,5]thieno[3,2-f]1,2,4-triazolo[4,3-a]1,4-diazepine], the values for the IC50 (in assay [1]; on benzodiazepine receptors) were 0.1 µM and 40 µM, respectively.

Consider `Cc1nnc2n1-c1sc3c(c1C(c1ccccc1Cl)=NC2)CCN(C(=S)NS(=O)(=O)c1ccnc2ccccc12)C3` [Example 35, 6-(2-chlorophenyl)-9-(4-quinolylsulfonyl)thiocarbamoyl-7,8,9,10-tetrahydro-1-methyl-4H-pyrido[4',3':4,5]thieno [3,2-f]1,2,4-triazolo[4,3-a]1,4-diazepine], for which the values for the IC50 (in assay [1]; on benzodiazepine receptors) were 0.034 µM and 2.2 µM, respectively.
